Test results from patent US20250186433A1, “ACSS2 INHIBITORS AND METHODS OF USE THEREOF” (EpiVario, Inc., priority 2017, published 2025).

target: ACSS2 (Homo sapiens, UniProt Q9NR19); assay: biochemical
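Note: Pyrophosphatase-coupled ACSS2 enzyme assay, 10 nM protein incubated 90 min at 37 °C with ATP, CoA and acetate, released phosphate read by Biomol Green absorbance at 620 nm.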
Procedure: The assay is based on a coupling reaction with Pyrophosphatase: ACSS2 is converting ATP+CoA+Acetate=>AMP+pyrophosphate+Acetyl-CoA (Ac-CoA). Pyrophosphatase converts pyrophosphate, a product of the ACSS2 reaction, to phosphate which can be detected by measuring the absorbance at 620 nm after incubation with the Biomol green reagent (Enzo life Science, BML-AK111).
At the end of the reaction, Biomol Green was added for 30 minutes at RT and the activity was measured by reading the absorbance at 620 nm.

ACSS2, sequence (Q9NR19 whole entry): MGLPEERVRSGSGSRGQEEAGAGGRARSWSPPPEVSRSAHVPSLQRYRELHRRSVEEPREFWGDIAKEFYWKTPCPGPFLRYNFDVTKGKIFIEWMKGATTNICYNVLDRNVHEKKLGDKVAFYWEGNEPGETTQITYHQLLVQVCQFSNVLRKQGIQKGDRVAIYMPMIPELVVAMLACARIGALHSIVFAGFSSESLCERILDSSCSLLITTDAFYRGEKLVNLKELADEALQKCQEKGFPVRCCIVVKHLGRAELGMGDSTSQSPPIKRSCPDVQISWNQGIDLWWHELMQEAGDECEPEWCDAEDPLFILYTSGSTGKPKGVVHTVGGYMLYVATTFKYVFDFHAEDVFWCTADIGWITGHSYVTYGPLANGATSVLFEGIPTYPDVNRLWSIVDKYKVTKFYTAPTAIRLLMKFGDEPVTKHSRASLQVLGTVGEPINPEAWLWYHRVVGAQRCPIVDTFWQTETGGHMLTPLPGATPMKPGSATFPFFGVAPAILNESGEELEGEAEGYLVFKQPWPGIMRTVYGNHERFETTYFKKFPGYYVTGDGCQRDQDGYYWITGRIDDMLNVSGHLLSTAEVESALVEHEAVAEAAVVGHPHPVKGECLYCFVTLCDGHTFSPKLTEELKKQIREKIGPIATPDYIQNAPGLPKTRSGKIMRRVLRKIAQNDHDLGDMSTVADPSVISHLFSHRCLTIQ

**Q.** CC1=NN(c2ccc(OC(F)F)cc2)C(=O)C1C(=O)Nc1cncc(C#N)c1 (stereo not shown) [compound 503, N-(5-cyanopyridin-3-yl)-1-(4-(difluoromethoxy)phenyl)-3-methyl-5-oxo-4,5-dihydro-1H-pyrazole-4-carboxamide] was tested. Which IC50 did it give?
**A.** 100 to 1000 nM

**Q.** Which IC50 does the source give for CCC(F)(F)c1cccc(NC(=O)C2C(=O)N(c3ccc4ccn(Cc5ccccc5)c4c3)N=C2C)c1 (stereo not shown) [compound 463, 1-(1-benzylindol-6-yl)-N-[3-(1,1-difluoropropyl)phenyl]-3-methyl-5-oxo-4H-pyrazole-4-carboxamide] here?
**A.** 0.01 to 6 nM

**Q.** How did the IC50 turn out when CCC(F)(F)c1cccc(NC(=O)C2C(=O)N(c3ccc4ccn(C(=O)c5cccc(C)c5)c4c3)N=C2C)c1 (stereo not shown) [compound 483, N-[3-(1,1-difluoropropyl)phenyl]-3-methyl-1-[1-(3-methylbenzoyl)indol-6-yl]-5-oxo-4H-pyrazole-4-carboxamide] was run?
**A.** 6 to 100 nM

**Q.** How did the IC50 turn out when CCC(F)(F)c1cccc(NC(=O)C2C(=O)N(c3ccc4ccn(CCc5ccccc5)c4c3)N=C2C)c1 (stereo not shown) [compound 477, N-[3-(1,1-difluoropropyl)phenyl]-3-methyl-5-oxo-1-[1-(2-phenylethyl)indol-6-yl]-4H-pyrazole-4-carboxamide] was run?
**A.** 6 to 100 nM

**Q.** C/C=C(/F)c1cccc(NC(=O)C2C(=O)N(c3ccc(OC(F)F)cc3)N=C2C)c1 (stereo not shown) [compound 495, (E)-1-(4-(difluoromethoxy)phenyl)-N-(3-(1-fluoroprop-1-en-1-yl)phenyl)-3-methyl-5-oxo-4,5-dihydro-1H-pyrazole-4-carboxamide] was tested. Which IC50 did it give?
**A.** 0.01 to 6 nM

**Q.** How did the IC50 turn out when CCC(F)(F)c1cccc(NC(=O)C2C(=O)N(c3ccc4cn[nH]c4c3)N=C2C)c1 (stereo not shown) [compound 499, N-[3-(1,1-difluoropropyl)phenyl]-1-(1H-indazol-6-yl)-3-methyl-5-oxo-4H-pyrazole-4-carboxamide] was run?
**A.** 0.01 to 6 nM

**Q.** For CCC(F)(F)c1cccc(NC(=O)C2C(=O)N(c3ccc(OC)c(-c4ccnc(C)c4)c3)N=C2C)c1 (stereo not shown) [compound 530, N-(3-(1,1-difluoropropyl)phenyl)-1-(4-methoxy-3-(2-methylpyridin-4-yl)phenyl)-3-methyl-5-oxo-4,5-dihydro-1H-pyrazole-4-carboxamide], which IC50 is on record?
**A.** 0.01 to 6 nM

**Q.** How did the IC50 turn out when CCC(F)(F)c1cccc(NC(=O)C2C(=O)N(c3ccc4ccn(C(=O)c5ccccc5O)c4c3)N=C2C)c1 (stereo not shown) [compound 509, N-(3-(1,1-difluoropropyl)phenyl)-1-(1-(2-hydroxybenzoyl)-1H-indol-6-yl)-3-methyl-5-oxo-4,5-dihydro-1H-pyrazole-4-carboxamid] was run?
**A.** 0.01 to 6 nM

**Q.** Which IC50 does the source give for CC1=NN(c2ccc(OC(F)F)cc2)C(=O)C1C(=O)Nc1cccc(C(F)(F)C2CCCC2)c1 (stereo not shown) [compound 470, N-(3-(cyclopentyldifluoromethyl)phenyl)-1-(4-(difluoromethoxy)phenyl)-3-methyl-5-oxo-4,5-dihydro-1H-pyrazole-4-carboxamide] here?
**A.** 100 to 1000 nM

**Q.** Which IC50 does the source give for CC1=NN(c2ccc(OC(F)F)cc2)C(=O)C1C(=O)Nc1cccc(C(F)(F)C2CC2)c1 (stereo not shown) [compound 481, N-(3-(cyclopropyldifluoromethyl)phenyl)-1-(4-(difluoromethoxy)phenyl)-3-methyl-5-oxo-4,5-dihydro-1H-pyrazole-4-carboxamide] here?
**A.** 0.01 to 6 nM

**Q.** How did the IC50 turn out when CCC(F)(F)c1cccc(NC(=O)C2C(=O)N(c3ccc4ccn(-c5ccccc5)c4c3)N=C2C)c1 (stereo not shown) [compound 472, N-[3-(1,1-difluoropropyl)phenyl]-3-methyl-5-oxo-1-(1-phenylindol-6-yl)-4H-pyrazole-4-carboxamide] was run?
**A.** 0.01 to 6 nM

**Q.** CCC(F)(F)c1cccc(NC(=O)C2C(=O)N(c3ccc4ccn(C)c4c3)N=C2C)c1 (stereo not shown) [compound 462, N-[3-(1,1-difluoropropyl)phenyl]-3-methyl-1-(1-methylindol-6-yl)-5-oxo-4H-pyrazole-4-carboxamide] was tested. Which IC50 did it give?
**A.** 0.01 to 6 nM

**Q.** Which IC50 does the source give for CCC(F)(F)c1cccc(NC(=O)C2C(=O)N(c3ccc(OC)cc3)N=C2C(C)=O)c1 (stereo not shown) [compound 529, 3-acetyl-N-(3-(1,1-difluoropropyl)phenyl)-1-(4-methoxyphenyl)-5-oxo-4,5-dihydro-1H-pyrazole-4-carboxamide] here?
**A.** 100 to 1000 nM

**Q.** How did the IC50 turn out when CCC(F)(F)c1cccc(NC(=O)C2C(=O)N(c3ccc4nc[nH]c4c3)N=C2C)c1 (stereo not shown) [compound 500, 1-(1H-benzo[d]imidazol-6-yl)-N-(3-(1,1-difluoropropyl)phenyl)-3-methyl-5-oxo-4,5-dihydro-1H-pyrazole-4-carboxamide] was run?
**A.** 0.01 to 6 nM

**Q.** Which IC50 does the source give for CCC(F)(F)c1cccc(NC(=O)C2C(=O)N(c3ccc4ccn(C(=O)c5ccccc5)c4c3)N=C2C)c1 (stereo not shown) [compound 475, 1-(1-benzoylindol-6-yl)-N-[3-(1,1-difluoropropyl)phenyl]-3-methyl-5-oxo-4H-pyrazole-4-carboxamide] here?
**A.** 0.01 to 6 nM

**Q.** How did the IC50 turn out when CCC(F)(F)c1cccc(NC(=O)C2C(=O)N(c3ccc4cc(C)n(C)c4c3)N=C2C)c1 (stereo not shown) [compound 502, N-[3-(1,1-difluoropropyl)phenyl]-1-(1,2-dimethylindol-6-yl)-3-methyl-5-oxo-4H-pyrazole-4-carboxamide] was run?
**A.** 0.01 to 6 nM

**Q.** How did the IC50 turn out when CC1=NN(c2ccc(OC(F)F)cc2)C(=O)C1C(=O)Nc1ccnc(C#N)c1 (stereo not shown) [compound 504, N-(2-cyanopyridin-4-yl)-1-(4-(difluoromethoxy)phenyl)-3-methyl-5-oxo-4,5-dihydro-1H-pyrazole-4-carboxamide] was run?
**A.** 100 to 1000 nM

**Q.** For CCC(F)(F)c1ccnc(NC(=O)C2C(=O)N(c3ccc(OC(F)F)cc3)N=C2C)c1 (stereo not shown) [compound 484, 1-(4-(difluoromethoxy)phenyl)-N-(4-(1,1-difluoropropyl)pyridin-2-yl)-3-methyl-5-oxo-4,5-dihydro-1H-pyrazole-4-carboxamide], which IC50 is on record?
**A.** 6 to 100 nM

**Q.** How did the IC50 turn out when CCC(F)(F)c1cccc(NC(=O)C2C(=O)N(c3ccc(OC)c(-c4cccc(C)n4)c3)N=C2C)c1 (stereo not shown) [compound 536, N-(3-(1,1-difluoropropyl)phenyl)-1-(4-methoxy-3-(6-methylpyridin-2-yl)phenyl)-3-methyl-5-oxo-4,5-dihydro-1H-pyrazole-4-carboxamide] was run?
**A.** 0.01 to 6 nM

**Q.** With CCC(F)(F)c1cccc(NC(=O)C2C(=O)N(c3ccc(OC(F)F)cc3)N=C2C)n1 (stereo not shown) [compound 486, 1-(4-(difluoromethoxy)phenyl)-N-(6-(1,1-difluoropropyl)pyridin-2-yl)-3-methyl-5-oxo-4,5-dihydro-1H-pyrazole-4-carboxamide] as the molecule, how does the IC50 read?
**A.** 0.01 to 6 nM

**Q.** Which IC50 does the source give for CCC(F)(F)c1cccc(NC(=O)C2C(=O)N(c3cc4[nH]ccc4cn3)N=C2C)c1 (stereo not shown) [compound 507, N-(3-(1,1-difluoropropyl)phenyl)-3-methyl-5-oxo-1-(1H-pyrrolo[3,2-c]pyridin-6-yl)-4,5-dihydro-1H-pyrazole-4-carboxamide] here?
**A.** 0.01 to 6 nM

**Q.** For CCC(F)(F)c1cccc(NC(=O)C2C(=O)N(c3ccc4ccn(C(=O)c5ccccc5C)c4c3)N=C2C)c1 (stereo not shown) [compound 479], which IC50 is on record?
**A.** 0.01 to 6 nM

**Q.** Which IC50 does the source give for CCC(F)(F)c1cccc(NC(=O)C2C(=O)N(c3ccc4cccnc4c3)N=C2C)c1 (stereo not shown) [compound 474, N-(3-(1,1-difluoropropyl)phenyl)-3-methyl-5-oxo-1-(quinolin-7-yl)-4,5-dihydro-1H-pyrazole-4-carboxamide] here?
**A.** 0.01 to 6 nM

**Q.** For CCC(F)(F)c1cccc(NC(=O)C2C(=O)N(c3cnc(OC)cn3)N=C2C)c1 (stereo not shown) [compound 512, N-(3-(1,1-difluoropropyl)phenyl)-1-(5-methoxypyrazin-2-yl)-3-methyl-5-oxo-4,5-dihydro-1H-pyrazole-4-carboxamide], which IC50 is on record?
**A.** 100 to 1000 nM

**Q.** Which IC50 does the source give for CC(F)(F)c1cccc(NC(=O)C2C(=O)N(c3ccc(OC(F)F)cc3)N=C2CS)c1 (stereo not shown) [compound 339] here?
**A.** 100 to 1000 nM

**Q.** How did the IC50 turn out when COc1ccccc1Cc1cc(-c2ccccc2)cc(N2N=C(C)C(C(=O)Nc3cccc(C(C)(F)F)c3)C2=O)c1 (stereo not shown) [compound 467] was run?
**A.** 6 to 100 nM

**Q.** For CC1=NN(c2ccc(OC(F)F)cn2)C(=O)C1C(=O)Nc1cccc(C(F)(F)C2CC2)c1 (stereo not shown) [compound 464, N-(3-(cyclopropyldifluoromethyl)phenyl)-1-(5-(difluoromethoxy)pyridin-2-yl)-3-methyl-5-oxo-4,5-dihydro-1H-pyrazole-4-carboxamide], which IC50 is on record?
**A.** 0.01 to 6 nM

**Q.** How did the IC50 turn out when C/C=C(\F)c1cccc(NC(=O)C2C(=O)N(c3ccc(OC(F)F)cc3)N=C2C)c1 (stereo not shown) [compound 494, (Z)-1-(4-(difluoromethoxy)phenyl)-N-(3-(1-fluoroprop-1-en-1-yl)phenyl)-3-methyl-5-oxo-4,5-dihydro-1H-pyrazole-4-carboxamide] was run?
**A.** 0.01 to 6 nM
